Assay results as given in ChEMBL document CHEMBL1157366 (Antimicrob Agents Chemother, 2007).
Calls of active or inactive are those of the source. The calls are words filed in the database; no cut-off is given here.

Key:
[1] = biological target: T1, Lethal factor (Bacillus anthracis) (UniProt P15917); experiment: Protection against Bacillus anthracis lethal toxin-mediated cytotoxicity in mouse RAW264.7 cells assessed as change in viability at 0.125 to 12.5 uM relative to toxin-treated control; assay type: cell-based
T1 sequence (whole entry): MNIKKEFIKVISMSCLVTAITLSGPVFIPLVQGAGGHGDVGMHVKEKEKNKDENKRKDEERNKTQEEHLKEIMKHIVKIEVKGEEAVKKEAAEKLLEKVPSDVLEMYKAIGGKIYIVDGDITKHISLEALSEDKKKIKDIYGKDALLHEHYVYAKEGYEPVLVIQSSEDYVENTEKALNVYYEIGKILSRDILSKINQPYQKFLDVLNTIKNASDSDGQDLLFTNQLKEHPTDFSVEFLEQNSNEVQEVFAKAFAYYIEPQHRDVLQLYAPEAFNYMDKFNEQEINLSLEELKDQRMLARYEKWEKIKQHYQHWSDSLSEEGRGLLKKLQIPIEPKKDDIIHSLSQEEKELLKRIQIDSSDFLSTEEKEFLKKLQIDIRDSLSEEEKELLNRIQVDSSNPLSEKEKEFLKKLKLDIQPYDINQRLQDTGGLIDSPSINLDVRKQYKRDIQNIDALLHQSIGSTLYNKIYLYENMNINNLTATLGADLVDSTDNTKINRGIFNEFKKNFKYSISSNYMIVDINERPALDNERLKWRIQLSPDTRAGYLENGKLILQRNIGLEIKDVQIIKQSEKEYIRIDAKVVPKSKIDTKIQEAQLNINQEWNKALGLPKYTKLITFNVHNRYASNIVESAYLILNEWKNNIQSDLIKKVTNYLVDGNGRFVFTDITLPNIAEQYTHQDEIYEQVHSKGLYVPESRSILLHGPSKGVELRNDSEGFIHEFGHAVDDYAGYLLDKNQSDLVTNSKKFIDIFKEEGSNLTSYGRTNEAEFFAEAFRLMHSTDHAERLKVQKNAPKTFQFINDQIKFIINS

[2] = biological target: Diphtheria toxin (Corynebacterium diphtheriae) (UniProt Q5PY51); experiment: Protection against diphtheria toxin-mediated cytotoxicity in CHOK1 cells assessed as cell viability after 48 hrs by WST1 dye reduction assay; assay type: cell-based; details: CHO-K1
Sequence of Diphtheria toxin (Corynebacterium diphtheriae) (Q5PY51 as listed by the source): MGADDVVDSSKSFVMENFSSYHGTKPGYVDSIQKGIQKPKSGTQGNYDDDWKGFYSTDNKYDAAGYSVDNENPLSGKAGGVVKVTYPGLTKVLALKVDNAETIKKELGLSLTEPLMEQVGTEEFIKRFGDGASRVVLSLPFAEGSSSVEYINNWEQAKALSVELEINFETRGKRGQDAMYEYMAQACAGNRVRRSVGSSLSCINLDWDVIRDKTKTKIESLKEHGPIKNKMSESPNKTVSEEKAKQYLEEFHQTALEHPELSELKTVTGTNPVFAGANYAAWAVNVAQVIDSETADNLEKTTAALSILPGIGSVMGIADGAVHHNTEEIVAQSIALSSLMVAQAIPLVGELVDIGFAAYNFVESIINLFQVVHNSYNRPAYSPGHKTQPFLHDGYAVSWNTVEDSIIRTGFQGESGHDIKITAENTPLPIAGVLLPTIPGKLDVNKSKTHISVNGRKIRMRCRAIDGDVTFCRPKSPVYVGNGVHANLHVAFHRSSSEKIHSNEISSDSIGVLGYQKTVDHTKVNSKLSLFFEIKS

[3] = biological target: Protective antigen (Bacillus anthracis) (UniProt P13423); experiment: Inhibition of Bacillus anthracis protective antigen binding to cell surface of mouse RAW264.7 cells at 12.5 uM after 2 hrs by flow cytometry; assay type: cell-based
Sequence of Protective antigen (Bacillus anthracis) (P13423 whole entry): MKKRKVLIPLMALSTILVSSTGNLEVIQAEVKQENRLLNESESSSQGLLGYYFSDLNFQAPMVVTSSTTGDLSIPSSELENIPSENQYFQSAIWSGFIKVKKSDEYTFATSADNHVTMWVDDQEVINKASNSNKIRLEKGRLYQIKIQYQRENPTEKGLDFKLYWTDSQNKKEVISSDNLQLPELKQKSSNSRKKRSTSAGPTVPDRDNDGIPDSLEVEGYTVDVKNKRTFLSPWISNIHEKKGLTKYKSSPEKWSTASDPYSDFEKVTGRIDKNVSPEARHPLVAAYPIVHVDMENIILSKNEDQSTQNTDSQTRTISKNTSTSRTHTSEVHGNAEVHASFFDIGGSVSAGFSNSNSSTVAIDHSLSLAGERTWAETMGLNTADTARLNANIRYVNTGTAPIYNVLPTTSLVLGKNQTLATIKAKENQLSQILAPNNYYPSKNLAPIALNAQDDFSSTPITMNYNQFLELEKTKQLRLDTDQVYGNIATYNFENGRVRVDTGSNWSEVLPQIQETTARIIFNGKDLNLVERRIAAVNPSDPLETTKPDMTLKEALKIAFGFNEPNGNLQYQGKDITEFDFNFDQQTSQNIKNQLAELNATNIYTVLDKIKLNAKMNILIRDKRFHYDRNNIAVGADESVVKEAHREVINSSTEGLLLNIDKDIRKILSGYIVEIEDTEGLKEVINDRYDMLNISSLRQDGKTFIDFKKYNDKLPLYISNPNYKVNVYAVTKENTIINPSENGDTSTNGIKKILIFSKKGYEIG

[4] = test system: Serum; experiment: Drug level in human serum; assay type: ADME, cell-free; details: read-out: Drug uptake
[5] = test system: Rattus norvegicus; experiment: Protection against Bacillus anthracis lethal toxin-mediated intoxication in Fischer 344 rat assessed as time to death at 5.4 mg/kg administered through cannula; assay type: functional
[6] = test system: CHO-K1; experiment: Inhibition of cholera toxin-mediated intoxication in CHOK1 cells assessed as cAMP levels after 4 hrs by HTRF assay; assay type: cell-based; details: Vibrio cholerae
[7] = test system: Rattus norvegicus; experiment: Toxicity in Bacillus anthracis lethal toxin-mediated intoxicated Fischer 344 rat assessed as adverse side effects administered through cannula; assay type: organism-based; details: in vivo, other
[8] = biological target: T2, Calmodulin-sensitive adenylate cyclase (Bacillus anthracis) (UniProt P40136); experiment: Inhibition of Bacillus anthracis edema toxin-mediated intoxication in CHOK1 cells assessed as cAMP levels after 4 hrs by HTRF assay; assay type: cell-based; details: CHO-K1
T2 sequence (whole entry): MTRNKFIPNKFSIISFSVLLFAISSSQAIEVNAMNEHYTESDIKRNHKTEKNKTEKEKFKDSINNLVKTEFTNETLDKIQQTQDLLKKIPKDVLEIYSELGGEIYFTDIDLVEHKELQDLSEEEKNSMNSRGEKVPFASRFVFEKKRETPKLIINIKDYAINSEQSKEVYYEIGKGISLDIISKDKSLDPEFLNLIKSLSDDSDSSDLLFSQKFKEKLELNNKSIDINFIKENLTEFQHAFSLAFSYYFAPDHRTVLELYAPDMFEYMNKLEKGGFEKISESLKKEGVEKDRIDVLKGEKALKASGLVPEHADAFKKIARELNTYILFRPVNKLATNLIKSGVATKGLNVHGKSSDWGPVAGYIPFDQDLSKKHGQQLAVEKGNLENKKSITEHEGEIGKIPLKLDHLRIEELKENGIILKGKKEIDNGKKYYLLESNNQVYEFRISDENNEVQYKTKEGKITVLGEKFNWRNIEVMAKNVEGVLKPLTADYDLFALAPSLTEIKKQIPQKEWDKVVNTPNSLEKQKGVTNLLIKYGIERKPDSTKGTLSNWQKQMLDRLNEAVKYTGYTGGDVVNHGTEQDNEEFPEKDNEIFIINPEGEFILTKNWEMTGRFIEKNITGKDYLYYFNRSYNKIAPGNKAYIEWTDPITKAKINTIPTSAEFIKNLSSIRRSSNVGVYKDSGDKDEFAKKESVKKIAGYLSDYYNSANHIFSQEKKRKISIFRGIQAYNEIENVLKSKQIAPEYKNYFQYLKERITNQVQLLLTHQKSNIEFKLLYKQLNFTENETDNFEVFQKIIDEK

[9] = test system: Rattus norvegicus; experiment: Protection against Bacillus anthracis lethal toxin-mediated intoxication in Fischer 344 rat assessed as time to death at 54 mg/kg administered through cannula; assay type: functional
[10] = biological target: Protective antigen (Bacillus anthracis) (UniProt P13423); experiment: Inhibition of Bacillus anthracis protective antigen pore formation in mouse RAW264.7 cells at 12.5 uM after 2 hrs; assay type: cell-based
[11] = test system: Plasmodium falciparum; experiment: Antimalarial activity against Plasmodium falciparum; assay type: functional, organism-based

C1CCC(/N=C(\NC23CC4CC(CC(C4)C2)C3)N2CCOCC2)CC1
fold change (FC) [1]: 3.9

CC1(C)CCC(C)(C)c2cc(C(=O)Nc3ccc(C(=O)O)cc3)ccc21
fold change (FC) [1]: 3.9

CC1(C)Oc2ccc(C#N)cc2[C@@H](OC2=CC(=O)CC2)[C@@H]1O
fold change (FC) [1]: 3

CC1=C(/C=C/C(C)=C/C=C/C(C)=C/C(=O)O)C(C)(C)CCC1
fold change (FC) [1]: 3

CC1=C(/C=C/C(C)=C/C=C/C(C)=C\C(=O)O)C(C)(C)CCC1
fold change (FC) [1]: 3.2

CC1=C(/C=C/C(C)=C\C=C\C(C)=C\C(=O)O)C(C)(C)CCC1
fold change (FC) [1]: 2.6

CCCCCCCCCCCCCCCCOC[C@@H](COP(=O)([O-])OCC[N+](C)(C)C)OC(C)=O
fold change (FC) [1]: 3.2

CCCNCC(O)COc1ccccc1C(=O)CCc1ccccc1 (centres undefined)
fold change (FC) [1]: 3.1

COc1ccc(S(=O)(=O)N(CCO)c2ccccc2CN(C)C/C=C/c2ccc(Cl)cc2)cc1
fold change (FC) [1]: 6.3

N=C(NC(=O)c1nc(Cl)c(N)nc1N)Nc1ccccc1
fold change (FC) [1]: 2.8

N[C@@H](COP(=O)(O)O)C(=O)O
fold change (FC) [1]: 2.8

O=S(=O)(NCCNC/C=C/c1ccc(Br)cc1)c1cccc2cnccc12
fold change (FC) [1]: 2.9

O=c1[nH]c2cc(C(F)(F)F)ccc2n1-c1cc(C(F)(F)F)ccc1O
fold change (FC) [1]: 2.8

CCCCc1oc2ccccc2c1C(=O)c1cc(I)c(OCCN(CC)CC)c(I)c1 [AMIODARONE]
Activity [2]: Active
Activity [3]: inactive
concentration [4]: 3.75 µM
Activity [5]: 64.8 min
Activity [6]: inactive
Activity [7]: Non-toxic
Activity [8]: Active
Activity [9]: 82.6 min
Activity [10]: Active

CC(C)COCC(CN(Cc1ccccc1)c1ccccc1)N1CCCC1 (centres undefined) [BEPRIDIL]
Activity [2]: Active
Activity [3]: inactive
concentration [4]: 6.8 µM
IC50 [11]: 2500 nM
Activity [6]: inactive
Activity [8]: Active
Activity [10]: Active
